Source: the supplement of paper PMC10307832

Columns and labels:
Assay in all cases: relative viability (nuclei count vs DMSO), 5 days (fraction); higher = more cells survive
[1] = system: H3255
Procedure, shortened: (§1)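 Lung cancer cell lines in 1536-well plates were dosed by pin tool the day after seeding, either with one drug alone or with a fixed anchor-drug dose plus five library-drug doses (not always all listed) in √10 steps. After 5 days, cells were fixed and their nuclei stained in one step (final 0.05% Triton X-100, 1% formaldehyde, 1 ug/ml Hoechst), then counted on 4× images. Relative viability is the nuclei count in treated wells divided by that in vehicle wells. Values are medians of duplicate plates.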

[2] = system: PC-14
Procedure, shortened: as §1

[3] = system: LK-2
Procedure, shortened: as §1

[4] = system: NCI-H460
Procedure, shortened: as §1

[5] = system: LU99A
Procedure, shortened: as §1

[6] = system: NCI-H2347
Procedure, shortened: as §1

[7] = system: LC-2-ad
Procedure, shortened: as §1

[8] = system: SW 900
Procedure, shortened: as §1

[9] = system: COR-L23
Procedure, shortened: as §1

[10] = system: LCLC-103H
Procedure, shortened: as §1

[11] = system: NCI-H1563
Procedure, shortened: as §1

[12] = system: NCI-H23
Procedure, shortened: as §1

[13] = system: SW 1573
Procedure, shortened: as §1

[14] = system: NCI-H596
Procedure, shortened: as §1

[15] = system: LCLC-97TM1
Procedure, shortened: as §1

[16] = system: NCI-H2228
Procedure, shortened: as §1

[17] = system: HCC-44
Procedure, shortened: as §1

[18] = system: 201T
Procedure, shortened: as §1

[19] = system: NCI-H727
Procedure, shortened: as §1

[20] = system: NCI-H1650
Procedure, shortened: as §1

[21] = system: A-427
Procedure, shortened: as §1

[22] = system: PC-3 [JPC-3]
Procedure, shortened: as §1

[23] = system: NCI-H1793
Procedure, shortened: as §1

## CCN(CC)CCCCNc1ncc2cc(-c3cc(OC)cc(OC)c3)c(NC(=O)NC(C)(C)C)nc2n1 + N=C(N)NC(=N)NCCc1ccccc1 [Phenformin] (partner 250 µM)
[1]; first compound 0.01 µM
  relative viability: 0.347
[1]; first compound 0.03162 µM
  relative viability: 0.336
[1]; first compound 0.1 µM
  relative viability: 0.27
[1]; first compound 0.3162 µM
  relative viability: 0.408
[1]; first compound 1 µM
  relative viability: 0.356
[2]; first compound 0.01 µM
  relative viability: 0.439
[2]; first compound 0.03162 µM
  relative viability: 0.426
[2]; first compound 0.1 µM
  relative viability: 0.661
[2]; first compound 0.3162 µM
  relative viability: 0.87
[2]; first compound 1 µM
  relative viability: 0.387
[3]; first compound 0.01 µM
  relative viability: 0.638
[3]; first compound 0.03162 µM
  relative viability: 0.289
[3]; first compound 0.1 µM
  relative viability: 0.239
[3]; first compound 0.3162 µM
  relative viability: 0.304
[3]; first compound 1 µM
  relative viability: 0.223
[4]; first compound 0.01 µM
  relative viability: 0.536
[4]; first compound 0.03162 µM
  relative viability: 0.567
[4]; first compound 0.1 µM
  relative viability: 0.53
[4]; first compound 0.3162 µM
  relative viability: 0.68
[4]; first compound 1 µM
  relative viability: 0.329
[5]; first compound 0.01 µM
  relative viability: 0.764
[5]; first compound 0.03162 µM
  relative viability: 0.841
[5]; first compound 0.1 µM
  relative viability: 1.04
[5]; first compound 0.3162 µM
  relative viability: 0.772
[5]; first compound 1 µM
  relative viability: 0.756
[6]; first compound 0.01 µM
  relative viability: 0.381
[6]; first compound 0.03162 µM
  relative viability: 0.24
[6]; first compound 0.1 µM
  relative viability: 0.278
[6]; first compound 0.3162 µM
  relative viability: 0.505
[6]; first compound 1 µM
  relative viability: 0.379
[7]; first compound 0.01 µM
  relative viability: 0.625
[7]; first compound 0.03162 µM
  relative viability: 0.55
[7]; first compound 0.1 µM
  relative viability: 0.586
[7]; first compound 0.3162 µM
  relative viability: 0.629
[7]; first compound 1 µM
  relative viability: 0.483
[8]; first compound 0.01 µM
  relative viability: 0.529
[8]; first compound 0.03162 µM
  relative viability: 0.678
[8]; first compound 0.3162 µM
  relative viability: 0.48
[8]; first compound 1 µM
  relative viability: 0.364
[9]; first compound 0.01 µM
  relative viability: 0.433
[9]; first compound 0.03162 µM
  relative viability: 0.444
[9]; first compound 0.1 µM
  relative viability: 0.511
[9]; first compound 0.3162 µM
  relative viability: 0.517
[9]; first compound 1 µM
  relative viability: 0.362
[10]; first compound 0.01 µM
  relative viability: 0.34
[10]; first compound 0.03162 µM
  relative viability: 0.335
[10]; first compound 0.1 µM
  relative viability: 0.37
[10]; first compound 0.3162 µM
  relative viability: 0.357
[10]; first compound 1 µM
  relative viability: 0.293
[11]; first compound 0.01 µM
  relative viability: 0.662
[11]; first compound 0.03162 µM
  relative viability: 0.66
[11]; first compound 0.1 µM
  relative viability: 0.689
[11]; first compound 0.3162 µM
  relative viability: 0.582
[11]; first compound 1 µM
  relative viability: 0.549
[12]; first compound 0.01 µM
  relative viability: 0.804
[12]; first compound 0.03162 µM
  relative viability: 0.878
[12]; first compound 0.1 µM
  relative viability: 0.791
[12]; first compound 0.3162 µM
  relative viability: 0.879
[12]; first compound 1 µM
  relative viability: 0.781
[13]; first compound 0.01 µM
  relative viability: 0.351
[13]; first compound 0.03162 µM
  relative viability: 0.372
[13]; first compound 0.1 µM
  relative viability: 0.394
[13]; first compound 0.3162 µM
  relative viability: 0.36
[13]; first compound 1 µM
  relative viability: 0.36
[14]; first compound 0.01 µM
  relative viability: 0.66
[14]; first compound 0.03162 µM
  relative viability: 0.727
[14]; first compound 0.1 µM
  relative viability: 0.899
[14]; first compound 0.3162 µM
  relative viability: 0.832
[14]; first compound 1 µM
  relative viability: 0.621
[15]; first compound 0.01 µM
  relative viability: 0.465
[15]; first compound 0.03162 µM
  relative viability: 0.42
[15]; first compound 0.1 µM
  relative viability: 0.514
[15]; first compound 0.3162 µM
  relative viability: 0.428
[15]; first compound 1 µM
  relative viability: 0.506
[16]; first compound 0.01 µM
  relative viability: 0.341
[16]; first compound 0.03162 µM
  relative viability: 0.336
[16]; first compound 0.1 µM
  relative viability: 0.384
[16]; first compound 0.3162 µM
  relative viability: 0.346
[16]; first compound 1 µM
  relative viability: 0.304
[17]; first compound 0.01 µM
  relative viability: 0.189
[17]; first compound 0.03162 µM
  relative viability: 0.195
[17]; first compound 0.1 µM
  relative viability: 0.237
[17]; first compound 0.3162 µM
  relative viability: 0.234
[17]; first compound 1 µM
  relative viability: 0.22
[18]; first compound 0.01 µM
  relative viability: 0.477
[18]; first compound 0.03162 µM
  relative viability: 0.479
[18]; first compound 0.1 µM
  relative viability: 0.51
[18]; first compound 0.3162 µM
  relative viability: 0.47
[18]; first compound 1 µM
  relative viability: 0.376
[19]; first compound 0.01 µM
  relative viability: 0.509
[19]; first compound 0.03162 µM
  relative viability: 0.49
[19]; first compound 0.1 µM
  relative viability: 0.547
[19]; first compound 0.3162 µM
  relative viability: 0.728
[19]; first compound 1 µM
  relative viability: 0.632
[20]; first compound 0.01 µM
  relative viability: 0.456
[20]; first compound 0.03162 µM
  relative viability: 0.416
[20]; first compound 0.1 µM
  relative viability: 0.503
[20]; first compound 0.3162 µM
  relative viability: 0.319
[20]; first compound 1 µM
  relative viability: 0.232
[21]; first compound 0.01 µM
  relative viability: 0.294
[21]; first compound 0.03162 µM
  relative viability: 0.273
[21]; first compound 0.1 µM
  relative viability: 0.289
[21]; first compound 0.3162 µM
  relative viability: 0.204
[21]; first compound 1 µM
  relative viability: 0.173
[22]; first compound 0.01 µM
  relative viability: 0.485
[22]; first compound 0.03162 µM
  relative viability: 0.484
[22]; first compound 0.1 µM
  relative viability: 0.487
[22]; first compound 0.3162 µM
  relative viability: 0.498
[22]; first compound 1 µM
  relative viability: 0.449
[23]; first compound 0.01 µM
  relative viability: 0.416
[23]; first compound 0.03162 µM
  relative viability: 0.427
[23]; first compound 0.1 µM
  relative viability: 0.353
[23]; first compound 0.3162 µM
  relative viability: 0.341
[23]; first compound 1 µM
  relative viability: 0.335
